Key:
Experiment in all cases: relative viability (nuclei count vs DMSO), 5 days (fraction); higher = more cells survive
[1] = compound: C/C(=N\NC(=S)N1CCC1)/C2=CC=CC=N2 + CC(=O)Nc1cccc(-n2c(=O)n(C3CC3)c(=O)c3c(Nc4ccc(I)cc4F)n(C)c(=O)c(C)c32)c1 [Trametinib] (partner 0.02 µM)
Procedure, shortened: (§1)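 Each reported value is a median over duplicate plates. It expresses relative viability: treated-well nuclei count divided by vehicle-well nuclei count. Lung cancer cell lines in 1536-well plates were dosed by pin tool a day after seeding, alone with one drug or with a fixed anchor-drug dose plus five library-drug doses (not always all listed) in √10 steps, and nuclei were counted after 5 days.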

[2] = compound: C/C(=N\NC(=S)N1CCC1)/C2=CC=CC=N2 + CS(=O)(=O)CCNCc1ccc(-c2ccc3ncnc(Nc4ccc(OCc5cccc(F)c5)c(Cl)c4)c3c2)o1 [Lapatinib] (partner 2 µM)
Procedure, shortened: as §1

[3] = compound: C/C(=N\NC(=S)N1CCC1)/C2=CC=CC=N2 + N=C(N)NC(=N)NCCc1ccccc1 [Phenformin] (partner 250 µM)
Procedure, shortened: as §1

[4] = compound: C/C(=N\NC(=S)N1CCC1)/C2=CC=CC=N2 + O=C(c1cc(Cc2n[nH]c(=O)c3ccccc23)ccc1F)N1CCN(C(=O)C2CC2)CC1 [Olaparib] (partner 8 µM)
Procedure, shortened: as §1

| Cell Line | relative viability ([1]; first compound 0.05 µM) | relative viability ([1]; first compound 0.1581 µM) | relative viability ([1]; first compound 0.5 µM) | relative viability ([1]; first compound 1.581 µM) | relative viability ([1]; first compound 5 µM) | relative viability ([2]; first compound 0.05 µM) | relative viability ([2]; first compound 0.1581 µM) | relative viability ([2]; first compound 0.5 µM) | relative viability ([2]; first compound 1.581 µM) | relative viability ([2]; first compound 5 µM) | relative viability ([3]; first compound 0.05 µM) | relative viability ([3]; first compound 0.1581 µM) | relative viability ([3]; first compound 0.5 µM) | relative viability ([3]; first compound 1.581 µM) | relative viability ([3]; first compound 5 µM) | relative viability ([4]; first compound 0.05 µM) | relative viability ([4]; first compound 0.1581 µM) | relative viability ([4]; first compound 0.5 µM) | relative viability ([4]; first compound 1.581 µM) | relative viability ([4]; first compound 5 µM) |
| --- | --- | --- | --- | --- | --- | --- | --- | --- | --- | --- | --- | --- | --- | --- | --- | --- | --- | --- | --- | --- |
| LU99A | 0.186 | 0.405 | 0.183 | 0.152 | 0.146 | 0.153 | 0.132 | 0.136 | 0.128 | 0.172 | 0.163 | 0.189 | 0.145 | 0.143 | 0.178 | 0.168 | 0.207 | 0.124 | 0.102 | 0.128 |
| HCC-366 | 0.0818 | 0.0309 | 0.0211 | 0.0256 | 0.025 | 0.0217 | 0.0257 | 0.0157 | 0.0217 | 0.0218 | 0.0354 | 0.0736 | 0.0328 | 0.0375 | 0.0286 | 0.119 | 0.0248 | 0.0175 | 0.0198 | 0.0219 |
| EKVX | 0.104 | 0.124 | 0.114 | 0.151 | 0.136 | 0.108 | 0.137 | 0.119 | 0.153 | 0.131 | 0.14 | 0.132 | 0.167 | 0.161 | 0.23 | 0.149 | 0.115 | 0.121 | 0.16 | 0.167 |
| NCI-H522 | 0.367 | 0.334 | 0.241 | 0.271 | 0.364 |  |  |  |  |  |  | 0.27 | 0.398 |  | 0.503 | 0.291 | 0.335 | 0.303 | 0.311 | 0.329 |
| NCI-H1755 | 0.551 | 0.734 | 0.254 | 0.284 | 0.298 | 0.249 | 0.173 | 0.195 | 0.205 | 0.191 | 0.328 | 0.311 | 0.288 | 0.33 | 0.271 | 0.632 | 0.858 | 0.288 | 0.29 | 0.224 |
| NCI-H647 | 0.0951 | 0.0887 | 0.127 | 0.114 | 0.13 | 0.139 | 0.0972 | 0.11 | 0.0821 | 0.0828 | 0.0392 | 0.0555 | 0.125 | 0.0761 | 0.0797 | 0.0792 | 0.0588 | 0.0743 | 0.0667 | 0.0631 |
| LC-2-ad | 0.238 | 0.222 | 0.223 | 0.232 | 0.231 | 0.113 | 0.122 | 0.106 | 0.112 | 0.122 | 0.29 | 0.277 | 0.259 | 0.19 | 0.226 | 0.234 | 0.21 | 0.199 | 0.196 | 0.2 |
| NCI-H1793 | 0.308 | 0.188 | 0.166 | 0.142 | 0.179 | 0.192 | 0.169 | 0.165 | 0.146 | 0.197 | 0.131 | 0.201 | 0.188 | 0.147 | 0.156 | 0.255 | 0.143 | 0.169 | 0.123 | 0.107 |

From the supplement of paper PMC10307832
